Where a name gives a salt, the structure may show the parent alone.

The target in this assay is NMDA receptor. Put plainly: MK-801 binding test ([3H]MK-801-binding assay, rat membrane specimen). The note with it: NMDA receptor affinity, [3H]MK-801 4 nM in assay, Ki computed from IC50. The procedure:
1) Preparation of Specimens of Rat Meninges:
The whole brain was taken out from 10-week-age SD rats (30 heads, by Nippon SLC), and the cerebellum was removed from it. A 0.32 M sucrose solution was added to the part containing the cerebrum, cut in a mixer, and homogenized with a Teflon™ homogenizer. This was centrifuged at 2800 rpm and 4° C. for 15 minutes, and the resulting supernatant was again centrifuged at 15000 g and 4° C. for 20 minutes. The pellets were suspended in 50 mM Tris-HCL (pH 7.5) containing 0.08% Triton X-100, and kept statically on ice for 30 minutes, then centrifuged at 15000 g and 4° C. for 20 minutes. The pellets were suspended in 50 mM Tris-HCl (pH 7.5) added thereto, and centrifuged at 15000 g and 4° C. for 20 minutes. 50 mM Tris-HCl (pH 7.5) was again added to the pellets, and centrifuged in the same manner as before. The pellets were suspended in 20 ml of 50 mM Tris-HCl (pH 7.5) added thereto, and homogenized with a Teflon™ homogenizer. The membrane specimen was divided into small tubes and stored in a deep freezer (−80° C.). Before use, this washed twice with 5 mM Tris-HCl (pH 7.5) of five times that of the membrane specimen. Its concentration was controlled at 1 mg protein/ml with 5 mM Tris-HCl (pH 7.5) added to it, and this was used for assay.
50 μl of the rat membrane specimen (1 mg protein/ml) was added to a solution of a test compound dissolved in 1 μl of DMSO.
`CN1CCC(C2(O)c3ccccc3CC2(C)C)CC1` (stereo not shown) [Example 1, 2,2-Dimethyl-1-(1-methylpiperidin-4-yl)indan-1-ol monofumarate] registered a Ki of 1400 nM. That is a single-digit micromolar value.

`Cc1ccc2c(c1)C(O)(C1CCN(C)CC1)C(C)(C)C2` (stereo not shown) [Example 6, 2,2,6-trimethyl-1-(1-methylpiperidin-4-yl)indan-1-ol] yielded a Ki of 880 nM.

Compound `CN1CCC(C2(O)c3cc(F)ccc3CC2(C)C)CC1` (stereo not shown) [Example 9] registered a Ki of 930 nM.

Compound `CN1CCC(C2(O)c3ccc(Br)cc3CC2(C)C)CC1` (stereo not shown) [Example 15] showed a Ki of 860 nM.

Take `CN1CCC(C2(O)c3cc(Cl)c(F)cc3CC2(C)C)CC1` (stereo not shown) [Example 28]: the affinity corresponds to a Ki of 1000 nM.

For the compound `CN1CCC(C2(O)c3cc(Br)cc(F)c3CC2(C)C)CC1` (stereo not shown) [Example 32], the inhibition constant (Ki) is 440 nM.

Consider `CN1CCC(C2(O)c3c(ccc(F)c3Br)CC2(C)C)CC1` (stereo not shown) [Example 34], for which the inhibition constant (Ki) turned out to be 1800 nM.

As to `CN1CCC(C2(O)c3c(Br)ccc(F)c3CC2(C)C)CC1` (stereo not shown) [Example 36], the inhibitory constant (Ki) worked out at 1900 nM.

As to `COc1c(F)ccc2c1C(O)(C1CCN(C)CC1)C(C)(C)C2` (stereo not shown) [Example 44], affinity was put at a Ki of 930 nM.

For the compound `CN1CCC(C2(O)c3ccccc3CCC2(C)C)CC1` (stereo not shown) [Example 53], the inhibition constant Ki was determined as 4100 nM.

In the case of `COc1ccc(F)c2c1C(O)(C1CCN(C)CC1)C(C)(C)C2` (stereo not shown) [Example 85], the Ki amounted to 6200 nM.

For `CCOc1c(F)ccc2c1C(O)(C1CCN(C)CC1)C(C)(C)C2` (stereo not shown) [Example 98], the Ki was found to be 8400 nM.

In the case of `COc1cc(F)c2c(c1OC)C(O)(C1CCN(C)CC1)C(C)(C)C2` (stereo not shown) [Example 101], the Ki stood at 2100 nM.

Compound `COc1c(F)c(F)cc2c1C(O)(C1CCN(C)CC1)C(C)(C)C2` (stereo not shown) [Example 108] showed an inhibitory constant (Ki) of 5600 nM.

With `COc1c(C#N)cc(F)c2c1C(O)(C1CCN(C)CC1)C(C)(C)C2` (stereo not shown) [Example 113], the affinity, expressed as Ki, was 900 nM.

In turn, `Cc1ccc2c(c1)C(O)(CC(C)(C)N)C(C)(C)C2` (stereo not shown) [Example 131, 1-(2-Amino-2-methylpropyl)-2,2,6-trimethylindan-1-ol fumarate] registered a Ki of 4800 nM.

`CN1CCC(C2(O)c3c(c(F)cc4c3OCC4)CC2(C)C)CC1` (stereo not shown) [Example 139, 5-Fluoro-7,7-dimethyl-8-(1-methylpiperidin-4-yl)-2,6,7,8-tetrahydro-2H-indeno[4,5-b]furan-8-ol fumarate] registered a Ki of 5000 nM. This Ki and that of the compound before are within 1.5-fold of each other.

`CN1CCC(C23OCCOc4c(F)ccc(c42)CC3(C)C)CC1` (stereo not shown) [Example 143, 4-(9-Fluoro-5,5-dimethyl-2,3,5,6-tetrahydro-4aH-indeno[1,7-ef][1,4]dioxepin-4a-yl-1-methylpiperidine fumarate]: the affinity corresponds to a Ki of 700 nM.

In turn, `COc1c(F)ccc2c1C1(CCC(CN3CCCC3)O1)C(C)(C)C2` (stereo not shown) [Example 145] gave a Ki of 8400 nM.

One may read the Ki as the equilibrium dissociation constant of an inhibitor or competing ligand from its target. A lower Ki goes with a stronger hold on the target.
